# Assay results as given in paper PMC3221499, “A New Flavonoid C-Glycoside from Celtis australis L. and Celtis occidentalis L. Leaves and Potential Antioxidant and Cytotoxic Activities” (Scientia Pharmaceutica, 2011).
# What was measured:
# [1] = system: FeSO4/H2O2-stimulated lipid peroxidation (MDA production) in rat tissue homogenates; experiment: FeSO4/H2O2-stimulated lipid peroxidation (MDA production, TBARS) in rat tissue homogenates; format: biochemical; settings: 200 μg/mL, mean ± SE, n=3; for Inhibition (%) Brain: rat brain homogenate; for Inhibition (%) Heart: rat heart homogenate; for Inhibition (%) Liver: rat liver homogenate
# Protocol: During aerobic incubation of the tissue homogenates, MDA released reacts with thiobarbituric acid (TBA) to give a pink colour. The capability of the samples to inhibit MDA formation is used as a measure of their antioxidant activity. […] The results were expressed as nanomoles of MDA equivalents per milligram of protein of rat (brain, heart and liver) homogenates. All measurements were done in triplicate. The capability to inhibit MDA formation was calculated using the following equation: Inhibition effects (%)=1-MDA in tissue homogenate with test extracts/MDA in tissue homogenate without test extracts×100
# [2] = DPPH radical scavenging activity; settings: samples at 100 μg/mL; 30 min at 30 °C; mean ± SE, n=3
# Protocol: The ability of the extracts to scavenge free radicals was determined according to the method of Hosny, et al 2002 [24]. In a 96-well plate, 10 μL of each sample or standard dissolved in ethanol (100 μg/mL) was added to 190 μL of 316 μM/mL DPPH solution. A blank was prepared using ethanol. After incubation at 30 °C for 30 min, the absorbance of each solution was measured at 517 nm. DL-α-tocopherol and BHT were used as positive controls. […] All experiments were carried out in triplicate.
SMILES,Inhibition (%) Brain [1] [%],Inhibition (%) Heart [1] [%],Inhibition (%) Liver [1] [%],DPPH % inhibition [2] [%]
"Cc1cc(C(C)(C)C)c(O)c(C(C)(C)C)c1 [BHT, butylated hydroxytoluene]",52.48 ± 1.72,43.23 ± 1.65,53.20 ± 1.65,55.3 ± 1.50
Cc1c(C)c2c(c(C)c1O)CC[C@@](C)(CCC[C@H](C)CCC[C@H](C)CCCC(C)C)O2 (racemic) [DL-α-tocopherol],62.90 ± 2.18,58.70 ± 1.80,71.10 ± 2.25,66.5 ± 2.75
